Laboratory results from US4740233A, “Substituted 1,2,4-triazolo[1,5-a]-pyrimidine-2-sulfonamides and compositions and methods of controlling undesired vegetation and suppressing the nitrification of ammonium nitrogen in soil” (The Dow Chemical Company, priority 1986, dated 1988).

What was measured:
cotton = test: Preemergent control of plant species; assay type: in vivo, Gossypium spp.; settings: Gossypium hirsutum, pre-emergence, 336 h; 0.25 lb/acre; read-out: percent preemergent control
How it was run: (§1)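 Preemergent application of aqueous emulsions at rates given in the table, uniformly over seeded greenhouse soil. Untreated (water) beds as comparison; rating after 2 weeks as reduction in growth.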

rape = test: Preemergent control of plant species; assay type: in vivo, Brassica napus; settings: Brassica napus, pre-emergence, 336 h; 0.25 lb/acre; read-out: percent preemergent control
How it was run: as §1

soybean = test: Preemergent control of plant species; assay type: in vivo, Glycine max.; settings: Glycine max, pre-emergence, 336 h; 0.25 lb/acre; read-out: percent preemergent control
How it was run: as §1

sugar beet = test: Preemergent control of plant species; assay type: in vivo, Beta saccharifera; settings: Beta vulgaris, pre-emergence, 336 h; 0.25 lb/acre; read-out: percent preemergent control
How it was run: as §1

jimsonweed = test: Preemergent control of plant species; assay type: in vivo, Datura stramonium; settings: Datura stramonium, pre-emergence, 336 h; 0.25 lb/acre; read-out: percent preemergent control
How it was run: as §1

annual morning glory = test: Preemergent control of plant species; assay type: in vivo, Ipomoea spp.; settings: Ipomoea, pre-emergence, 336 h; 0.25 lb/acre; read-out: percent preemergent control
How it was run: as §1

velvetleaf = test: Preemergent control of plant species; assay type: in vivo, Abutilon theophrasti; settings: Abutilon theophrasti, pre-emergence, 336 h; 0.25 lb/acre; read-out: percent preemergent control
How it was run: as §1

corn = test: Preemergent control of plant species; assay type: in vivo, Zea mays; settings: Zea mays, pre-emergence, 336 h; 0.25 lb/acre; read-out: percent preemergent control
How it was run: as §1

rice = test: Preemergent control of plant species; assay type: in vivo, Oryza sativa; settings: Oryza sativa, pre-emergence, 336 h; 0.25 lb/acre; read-out: percent preemergent control
How it was run: as §1

sorghum = test: Preemergent control of plant species; assay type: in vivo, Sorghum vulgare; settings: Sorghum, pre-emergence, 336 h; 0.25 lb/acre; read-out: percent preemergent control
How it was run: as §1

wheat = test: Preemergent control of plant species; assay type: in vivo, Triticum aestivum; settings: Triticum aestivum, pre-emergence, 336 h; 0.25 lb/acre; read-out: percent preemergent control
How it was run: as §1

barnyardgrass = test: Preemergent control of plant species; assay type: in vivo, Echinochloa crusgalli; settings: Echinochloa crus-galli, pre-emergence, 336 h; 0.25 lb/acre; read-out: percent preemergent control
How it was run: as §1

johnson grass = test: Preemergent control of plant species; assay type: in vivo, Sorghum halepense; settings: Sorghum halepense, pre-emergence, 336 h; 0.25 lb/acre; read-out: percent preemergent control
How it was run: as §1

yellow foxtail = test: Preemergent control of plant species; assay type: in vivo, Setaria lutescens; settings: Setaria, pre-emergence, 336 h; 0.25 lb/acre; read-out: percent preemergent control
How it was run: as §1

yellow nutsedge = test: Preemergent control of plant species; assay type: in vivo, Cyperus esculentus; settings: Cyperus, pre-emergence, 336 h; 0.25 lb/acre; read-out: percent preemergent control
How it was run: as §1

corn (First In) = test: Gametocidal activity in corn, postemergent application; assay type: in vivo; settings: sprayed at three leaf stage
Protocol: The compounds of this invention are also plant gametocides depending on the dosage and timing of application and the species of plant to which the compounds are applied. For example, certain of the compounds were sprayed on corn seedlings at the three leaf stage of growth, and the seedlings were returned to the greenhouse for subsequent growth and observation. The corn variety was "First In". The chemicals were dissolved in acetone, and the acetone solution was diluted with water containing Tween 20 wetting agent such that the final spray solution contained 50% acetone and 0.1% Tween 20 in water. […] Tabulated below are data which illustrate the use of the compounds of this invention as plant gametocides in corn.

[1] = test system: annual sugar beet variety (SLC03); test: Plant growth regulator activity, postemergence; assay type: in vivo; settings: Beta vulgaris, post-emergence, 672 h, 4 weeks after spraying; read-out: Bolting Inhibition (postemergence), concentration with observed effect
Description: (§2) Using a regular biennial variety, even a bolting-susceptible variety would require a cold treatment of around 10-16 weeks plus a hormone treatement in conjunction with specific light intensities. Thus, for a screening organism, we selected one which would consistently produce bolting on a regular schedule. The screen is run with an annual sugar beet variety (SLC03) provided by Dr. Richard J. Hecker, Fort Collins, Colo. This variety is an inbred which bolts in the 6- to 8-leaf stage without any need for vernalization. This allows the screen to be run entirely in the greenhouse with all 110 chemical compounds tested on one tray. The sugarbeets are grown in 3×3 inch square pots in a greenhouse sandy loam potting mix. The sugarbeets are sprayed with test compounds when they are 2 to 3 weeks old (2 true leaves). The compounds are dissolved in acetone and diluted with water containing Tween 20 as a wetting agent. The concentration of acetone in the final spray is 20% and the concentration of Tween 20 is 0.05 percent. The plants are examined for the appearance of a bolt 4 weeks after spraying.

[2] = test system: annual sugar beet variety (SLC03); test: Plant growth regulator activity, preemergence; assay type: in vivo; settings: Beta vulgaris, pre-emergence; 6-7 weeks; read-out: Bolting Inhibition (preemergence), concentration with observed effect
Description: as §2
Preemergence tests are conducted by spraying formulated chemical on seeds placed on potting soil. The sprayed seeds are then covered with 1/4 inch of potting soil and the pots are watered. Bolting is evaluated 6-7 weeks after the initiation of the test. At this time untreated plants have a vigorous bolting stem with visible flowers.

Row | SMILES | plant injury at 280.212 g/ha (cotton) | plant injury at 280.212 g/ha (rape) | plant injury at 280.212 g/ha (soybean) | plant injury at 280.212 g/ha (sugar beet) | pest or weed control at 280.212 g/ha (jimsonweed) | pest or weed control at 280.212 g/ha (annual morning glory) | pest or weed control at 280.212 g/ha (velvetleaf) | plant injury at 280.212 g/ha (corn) | plant injury at 280.212 g/ha (rice) | plant injury at 280.212 g/ha (sorghum) | plant injury at 280.212 g/ha (wheat) | pest or weed control at 280.212 g/ha (barnyardgrass) | pest or weed control at 280.212 g/ha (johnson grass) | pest or weed control at 280.212 g/ha (yellow foxtail) | pest or weed control at 280.212 g/ha (yellow nutsedge) | concentration required to produce 100% control (gametocidal activity) (corn (First In)) | minimal effective concentration [1] | minimal effective concentration [2]
1 | Cc1ccn2nc(S(=O)(=O)N(C(=O)C(C)C)c3c(F)cccc3F)nc2n1 [Compound 277] | 50% | 100% | 20% | 100% | 100% | 30% | 100% | 40% | 80% | 90% | 80% | 90% | 100% | 100% | 100% | 200 ppm | – | –
2 | CC(=O)N(c1c(F)cccc1F)S(=O)(=O)c1nc2nc(C)ccn2n1 [Compound 275] | 100% | 100% | 20% | 100% | 100% | 90% | 100% | 80% | 90% | 100% | 100% | 100% | 100% | 100% | 100% | 400 ppm | – | –
3 | Cc1ccccc1NS(=O)(=O)c1nc2ncc(Cl)cn2n1 [Compound 129] | – | – | – | – | – | – | – | – | – | – | – | – | – | – | – | – | 400 µg/mL | 400 µg/mL
